Eight compounds from patent US6509341B1, “Carboxylic acid derivatives, carrying amido side-chains; production and use as endothelin receptor antagonists” (Abbott Laboratories, priority 1997, dated 2003) can be followed below.

A word on the Ki: it is the equilibrium dissociation constant of an inhibitor or competing ligand from its target. The low end stands for higher affinity, the high end for lower affinity. As usually defined, the melting point is the temperature, or range, at which the solid turns liquid.

One series deals with T1, human ETA receptor (Homo sapiens, UniProt P25101).
T1 construct: expressed in transfected cells; host or cells: CHO cells (membrane preparation)
T1 sequence (P25101 21-427): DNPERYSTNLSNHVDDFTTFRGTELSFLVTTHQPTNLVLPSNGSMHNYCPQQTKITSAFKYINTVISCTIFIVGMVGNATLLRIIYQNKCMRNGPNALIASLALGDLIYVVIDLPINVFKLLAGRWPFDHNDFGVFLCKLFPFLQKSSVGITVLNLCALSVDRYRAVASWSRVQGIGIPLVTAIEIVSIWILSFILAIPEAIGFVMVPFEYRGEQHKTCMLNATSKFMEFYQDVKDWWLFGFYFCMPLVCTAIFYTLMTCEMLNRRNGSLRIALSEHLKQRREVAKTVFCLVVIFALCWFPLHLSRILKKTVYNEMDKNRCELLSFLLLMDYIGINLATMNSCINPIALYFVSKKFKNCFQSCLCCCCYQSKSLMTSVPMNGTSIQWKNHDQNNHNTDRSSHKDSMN
The experiment in a line: ETA receptor binding assay ([125I]-ET1, CHO cell membranes). To be noted: cloned human ETA receptor, 25 pM [125I]-ET1, 25° C. The procedure:
(§1) Cloned human ETA or ETB receptor-expressing CHO cells were employed for binding studies.
(§2) The ETA or ETB receptor-expressing CHO cells were grown in DmeM NUT MIX F12-medium (Gibco, No. 21331-020) with 10% fetal calf serum (PAA Laboratories GmbH, Linz, No. A15-022), 1 mM glutamine (Gibco No. 25030-024), 100 U/ml penicillin and 100 μg/ml streptomycin (Gibco [sic], Sigma No. P-0781). After 48 hours, the cells were washed with PBS and incubated with 0.05% trypsin-containing PBS at 37° C. for 5 minutes. This was followed by neutralization with medium, and the cells were collected by centrifugation at 300×g.
(§3) For the membrane preparation, the cells were adjusted to a concentration of 10^8 cells/ml of buffer (50 mM tris.HCL [sic] buffer, pH 7.4) and then disintegrated by ultrasound Branson Sonifier 250, 40-70 seconds/constant/output [sic] 20).
(§4) For the ETA and ETB receptor binding assay, the membranes were suspended in incubation buffer (50 mM tris-HCl, pH 7.4 with 5 mM MnCl2, 40 mg/ml Bacitracin and 0.2% BSA) in a concentration of 50 μg of protein per assay mixture and incubated with 25 pM [125I]-ET1 [sic] (ETA receptor assay) or 25 pM [125I]-ET3 [sic] (ETB receptor assay) at 25° C. in the presence and absence of test substance. The nonspecific binding was determined with 10^−7 M ET1. After 30 min, filtration through GF/B glass fiber filters (Whatman, England) in a Skatron cell harvester (Skatron, Lier, Norway) was carried out to separate free and bound radioligand, and the filters was washed with ice-cold tris-HCl buffer, pH 7.4 with 0.2% BSA. The radioactivity collected on the filters was quantified using a Packard 2200 CA liquid scintillation counter.
(§5) Receptor binding data were measured by the binding assay described above for the compounds listed below.

In another series the target is T2, human ETB receptor (Homo sapiens, UniProt P24530).
T2 construct: expressed in transfected cells; host or cells: CHO cells (membrane preparation)
T2 sequence (P24530 27-442): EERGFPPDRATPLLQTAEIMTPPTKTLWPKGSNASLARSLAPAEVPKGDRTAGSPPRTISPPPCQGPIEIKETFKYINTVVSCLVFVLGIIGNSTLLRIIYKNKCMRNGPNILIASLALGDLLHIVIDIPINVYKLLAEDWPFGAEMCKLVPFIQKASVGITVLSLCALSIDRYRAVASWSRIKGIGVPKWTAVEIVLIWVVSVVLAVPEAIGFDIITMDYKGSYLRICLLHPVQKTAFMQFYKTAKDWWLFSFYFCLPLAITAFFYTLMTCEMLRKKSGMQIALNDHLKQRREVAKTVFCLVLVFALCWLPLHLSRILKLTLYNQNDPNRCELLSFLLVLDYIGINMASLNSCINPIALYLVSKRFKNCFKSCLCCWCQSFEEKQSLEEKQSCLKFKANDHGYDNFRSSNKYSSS
As to the kind of experiment: ETB receptor binding assay ([125I]-ET3, CHO cell membranes). Conditions: cloned human ETB receptor, 25 pM [125I]-ET3, 25° C. On the procedure: as §1, §2, §3, §4, §5

As to `Cc1cc(C)nc(OC(C(=O)O)C(OCC(=O)N2CCc3ccccc3C2)(c2ccccc2)c2ccccc2)n1` (centres unmarked) [Compound I-307, 2-(4,6-Dimethyl-2-pyrimidinyloxy)-3-(2-oxo-2-(1,2,3,4-tetrahydroisoquinolin-2-yl)ethoxy)-3,3-diphenylpropionic acid], the Ki at human ETA receptor came out at 1.6 nM; at human ETB receptor it was 10 nM.

Consider `Cc1cc(C)nc(OC(C(=O)O)C(OCC(=O)N(C)c2ccccc2)(c2ccccc2)c2ccccc2)n1` (centres unmarked) [Compound I-109, 2-(4,6-Dimethyl-2-pyrimidinyloxy)-3-(N-methyl-N-phenylcarbamoylmethoxy)-3,3-diphenylpropionic acid], for which the Ki at human ETA receptor was determined as 0.4 nM; at human ETB receptor, 142 nM.

Consider `CCCCN(CCCC)C(=O)COC(c1ccccc1)(c1ccccc1)C(Oc1nc(C)cc(OC)n1)C(=O)O` (centres unmarked) [Compound I-349, 2-(4-Methyl-6-methoxy-2-pyrimidinyloxy)-3-(N,N-dibutylcarbamoylmethoxy)-3,3-diphenylpropionic acid], for which the Ki amounted to 3 nM on human ETA receptor and 142 nM on human ETB receptor.

Take `CCCCN(CCCC)C(=O)COC(c1ccccc1)(c1ccccc1)C(Oc1nc(C)cc(C)n1)C(=O)O` (centres unmarked) [Compound I-347, 2-(4,6-Dimethyl-2-pyrimidinyloxy)-3-(N,N-dibutylcarbamoylmethoxy)-3,3-diphenylpropionic acid]: the Ki stood at 3.8 nM at human ETA receptor and 155 nM on human ETB receptor.

Consider `COc1cc(C)nc(OC(C(=O)O)C(OCC(=O)N2CCc3ccccc3C2)(c2ccccc2)c2ccccc2)n1` (centres unmarked) [Compound I-309, 2-(4-Methyl-6-methoxy-2-pyrimidinyloxy)-3-(2-oxo-2-(1,2,3,4-tetrahydroisoquinolin-2-yl)ethoxy)-3,3-diphenylpropionic acid], for which the values for the inhibition constant (Ki) on human ETA receptor and on human ETB receptor were 1 nM and 12 nM, respectively.

Compound `Cc1cc(C)nc(OC(C(=O)O)C(OCC(=O)N2Cc3ccccc3C(C)(C)C2)(c2ccccc2)c2ccccc2)n1` (centres unmarked) [Example 35, 2-(4,6-Dimethylpyrimidin-2-yloxy)-3-(2-oxo-2-(4,4-dimethyl-1,2,3,4-tetrahydroisoquinolin-2-yl)ethoxy)-3,3-diphenylpropionic acid] returned a melting point of 185 to 187 °C.

With `COc1cc(C)nc(OC(C(=O)O)C(OCC(=O)N(C)c2ccccc2)(c2ccccc2)c2ccccc2)n1` (centres unmarked) [Compound I-111, 2-(4-methyl-6-methoxy-2-pyrimidinyloxy)-3-(N-methyl-N-phenylcarbamoylmethoxy)-3,3-diphenylpropionic acid], the inhibition constant Ki on human ETA receptor turned out to be 0.3 nM; at human ETB receptor, 109 nM.

For the compound `COc1cc2c(cc1OC)CN(C(=O)COC(c1ccccc1)(c1ccccc1)C(Oc1nc(C)cc(C)n1)C(=O)O)CC2` (centres unmarked) [Example 34, 2-(4,6-Dimethylpyrimidin-2-yloxy)-3-(2-oxo-2-(6,7-dimethoxy-1,2,3,4-tetrahydroisoquinolin-2-yl)ethoxy)-3,3-diphenylpropionic acid], the melting point was 145 to 148 °C.
